# Experimental data from patent US20240238425A1, “HSD17B13 Inhibitors and/or Degraders” (Pfizer Inc., priority 2022, published 2024).
# Where a name gives a salt, the structure may show the parent alone.
# Test system: HiBiT-HSD17β13 fusion protein (N-terminal HiBiT-tagged HSD17β13 isoform D) in Huh7 HiBiT-HSD17β13 OE cells
# Assay: Whole-cell Huh7-HSD17B13 HiBiT assay (degrader potency and maximal efficacy, luminescence readout)
# Type: cell-based, human
# Conditions: 24 hour incubation, geometric mean, * = geometric mean for all forms tested (parent and salt forms); for DC50: read-out: Huh7_HIBIT-HSD17β13_DC50 GMean DC50; for Huh7_HIBIT-HSD17β13_DC50 GMean Asymptote Maximum: max. concentration 1 μM
# How it was run: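 Huh7 cells stably overexpressing N-terminal HiBiT-tagged HSD17β13 isoform D, clone matched to primary hepatocyte expression, were exposed to an 11-point, 1 in 3.162 dilution series (top 1 μM final) for 24 h at 37° C. Lytic HiBiT luminescence was normalised to DMSO and parental-cell controls; DC50 from four-parameter logistic fit, with CellTiter-Glo counter screen.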
Compound,DC50 [nM],Huh7_HIBIT-HSD17β13_DC50 GMean Asymptote Maximum
"Cn1c(=O)n(C2CCC(=O)NC2=O)c2ccc(CCCN3CCN(c4ccc5nn(C6CCC(CNC(=O)c7cc(F)c(O)c(F)c7F)CC6)cc5n4)CC3)cc21.O=CO (racemic) [Example 16, N-{[(1r,4r)-4-{5-[4-(3-{1-[(3RS)-2,6-Dioxopiperidin-3-yl]-3-methyl-2-oxo-2,3-dihydro-1H-benzimidazol-5-yl}propyl)piperazin-1-yl]-2H-pyrazolo[4,3-b]pyridin-2-yl}cyclohexyl]methyl}-2,3,5-trifluoro-4-hydroxybenzamide, formate salt]",0.42,82%
"Cn1c(=O)n(C2CCC(=O)NC2=O)c2ccc(CN3CCN(c4ncc(-c5ccc6cn([C@]78CC[C@](CNC(=O)c9cc(F)c(O)c(F)c9F)(CC7)CC8)nc6c5)cn4)CC3)cc21 (mixture of isomers) [Example 83, N-{[4-(6-{2-[4-({1-[(3RS)-2,6-dioxopiperidin-3-yl]-3-methyl-2-oxo-2,3-dihydro-1H-benzimidazol-5-yl}methyl)piperazin-1-yl]pyrimidin-5-yl}-2H-indazol-2-yl)bicyclo[2.2.2]octan-1-yl]methyl}-2,3,5-trifluoro-4-hydroxybenzamide]",0.5,81%
"Cn1c(=O)n(C2CCC(=O)NC2=O)c2ccc(CCCN3CCc4nc(-c5ccc6cn([C@H]7CC[C@H](CNC(=O)c8cc(F)c(O)c(F)c8F)CC7)nc6c5)ccc4C3)cc21 (mixture of isomers) [Example 21, N-{[(1r,4r)-4-{6-[6-(3-{1-[(3RS)-2,6-Dioxopiperidin-3-yl]-3-methyl-2-oxo-2,3-dihydro-1H-benzimidazol-5-yl}propyl)-5,6,7,8-tetrahydro-1,6-naphthyridin-2-yl]-2H-indazol-2-yl}cyclohexyl]methyl}-2,3,5-trifluoro-4-hydroxybenzamide]",0.38,74%
"Cc1ccc(C(=O)N2CCN(CCOc3ncc(-c4ccc5cn(C6CCC(CNC(=O)c7cc(F)c(O)c(F)c7F)CC6)nc5c4)cn3)CC2)cc1N1CCC(=O)NC1=O.O=C(O)C(F)(F)F (centres unmarked) [Example 7, N-{[(1r,4r)-4-{6-[2-(2-{4-[3-(2,4-Dioxo-1,3-diazinan-1-yl)-4-methylbenzoyl]piperazin-1-yl}ethoxy)pyrimidin-5-yl]-2H-indazol-2-yl}cyclohexyl]methyl}-2,3,5-trifluoro-4-hydroxybenzamide, trifluoroacetate salt]",3,78* %
"Cn1c(=O)n(C2CCC(=O)NC2=O)c2ccc(CCCN3CCN(c4ccc(-c5ccc6cn([C@H]7CC[C@H](CNC(=O)c8cc(F)c(O)c(F)c8F)CC7)nc6c5)cn4)CC3)cc21 (mixture of isomers) [Example 92, N-{[(1r,4r)-4-(6-{6-[4-(3-{1-[(3RS)-2,6-dioxopiperidin-3-yl]-3-methyl-2-oxo-2,3-dihydro-1H-benzimidazol-5-yl}propyl)piperazin-1-yl]pyridin-3-yl}-2H-indazol-2-yl)cyclohexyl]methyl}-2,3,5-trifluoro-4-hydroxybenzamide]",0.4,87%
"Cl.Cn1c(=O)n(C2CCC(=O)NC2=O)c2ccc(CCCN3CCN(c4ncc(-c5ccc6cn([C@H]7CC[C@H](CNC(=O)c8cc(F)c(O)c(F)c8F)CC7)nc6c5)cn4)CC3)cc21 (mixture of isomers) [Example 24, N-{[(1r,4r)-4-(6-{2-[4-(3-{1-[(3RS)-2,6-dioxopiperidin-3-yl]-3-methyl-2-oxo-2,3-dihydro-1H-benzimidazol-5-yl}propyl)piperazin-1-yl]pyrimidin-5-yl}-2H-indazol-2-yl)cyclohexyl]methyl}-2,3,5-trifluoro-4-hydroxybenzamide, hydrochloride salt]",0.18,88* %
"Cc1ccc(C(=O)N2CCC3(CCC(N4CCN(c5ccc6cn([C@H]7CC[C@H](CNC(=O)c8cc(F)c(O)c(F)c8F)CC7)nc6c5)CC4)C3)CC2)cc1N1CCC(=O)NC1=O (some centres unmarked) [Example 113, N-({(1r,4r)-4-[6-(4-{8-[3-(2,4-dioxo-1,3-diazinan-1-yl)-4-methylbenzoyl]-8-azaspiro[4.5]decan-2-yl}piperazin-1-yl)-2H-indazol-2-yl]cyclohexyl}methyl)-2,3,5-trifluoro-4-hydroxybenzamide, formate salt]",1.4,79%
"Cn1c(=O)n(C2CCC(=O)NC2=O)c2ccc(CCCN3CCN(c4nccc(-c5ncc(C67CCC(CNC(=O)c8cc(F)c(O)c(F)c8F)(CC6)CC7)o5)n4)CC3)cc21 (racemic) [Example 18, N-{[4-(2-{2-[4-(3-{1-[(3RS)-2,6-Dioxopiperidin-3-yl]-3-methyl-2-oxo-2,3-dihydro-1H-benzimidazol-5-yl}propyl)piperazin-1-yl]pyrimidin-4-yl}-1,3-oxazol-5-yl)bicyclo[2.2.2]octan-1-yl]methyl}-2,3,5-trifluoro-4-hydroxybenzamide]",0.58,82%
"Cn1c(=O)n(C2CCC(=O)NC2=O)c2ccc(CCN3CCN(c4ccc(-c5noc([C@]67CC[C@](CNC(=O)c8cc(F)c(O)c(F)c8F)(CC6)CC7)n5)nn4)CC3)cc21 (mixture of isomers) [Example 55, N-{[4-(3-{6-[4-(2-{1-[(3RS)-2,6-dioxopiperidin-3-yl]-3-methyl-2-oxo-2,3-dihydro-1H-benzimidazol-5-yl}ethyl)piperazin-1-yl]pyridazin-3-yl}-1,2,4-oxadiazol-5-yl)bicyclo[2.2.2]octan-1-yl]methyl}-2,3,5-trifluoro-4-hydroxybenzamide, trifluoroacetate salt]",0.49,82%
"Cc1ccc(C(=O)N2CCC3(CC2)C[C@H](N2CCN(c4ncc(-c5ccc6cn([C@H]7CC[C@H](CNC(=O)c8cc(F)c(O)c(F)c8F)CC7)nc6c5)cn4)CC2)CO3)cc1N1CCC(=O)NC1=O [Example 73, N-{[(1r,4r)-4-{6-[2-(4-{(3S)-8-[3-(2,4-dioxo-1,3-diazinan-1-yl)-4-methylbenzoyl]-1-oxa-8-azaspiro[4.5]decan-3-yl}piperazin-1-yl)pyrimidin-5-yl]-2H-indazol-2-yl}cyclohexyl]methyl}-2,3,5-trifluoro-4-hydroxybenzamide, trifluoroacetate salt]",0.96,76%
"Cl.Cn1c(=O)n(C2CCC(=O)NC2=O)c2ccc(CCCN3Cc4ccc(-c5ccc6cn(C7CCC(CNC(=O)c8cc(F)c(O)c(F)c8F)CC7)nc6c5)cc4C3)cc21 (racemic) [Example 1, N-{[(1r,4r)-4-{6-[2-(3-{1-[(3RS)-2,6-Dioxopiperidin-3-yl]-3-methyl-2-oxo-2,3-dihydro-1H-benzimidazol-5-yl}propyl)-2,3-dihydro-1H-isoindol-5-yl]-2H-indazol-2-yl}cyclohexyl]methyl}-2,3,5-trifluoro-4-hydroxybenzamide, hydrochloride salt]",0.11,87* %
"Cc1ccc(C(=O)N2CCC3(CCC(N4CCN(c5ccc6cn([C@H]7CC[C@H](CNC(=O)c8cc(F)c(O)c(F)c8)CC7)nc6c5)CC4)CC3)CC2)cc1N1CCC(=O)NC1=O [Example 109, N-({(1r,4r)-4-[6-(4-{3-[3-(2,4-dioxo-1,3-diazinan-1-yl)-4-methylbenzoyl]-3-azaspiro[5.5]undecan-9-yl}piperazin-1-yl)-2H-indazol-2-yl]cyclohexyl}methyl)-3,5-difluoro-4-hydroxybenzamide]",1.1,81%
"Cc1ccc(C(=O)N2CCC3(CCC(n4cc(-c5ccc6cn([C@H]7CC[C@H](CNC(=O)c8cc(F)c(O)c(F)c8F)CC7)nc6c5)cn4)CC3)CC2)cc1N1CCC(=O)NC1=O [Example 112, N-({(1r,4r)-4-[6-(1-{3-[3-(2,4-dioxo-1,3-diazinan-1-yl)-4-methylbenzoyl]-3-azaspiro[5.5]undecan-9-yl}-1H-pyrazol-4-yl)-2H-indazol-2-yl]cyclohexyl}methyl)-2,3,5-trifluoro-4-hydroxybenzamide, formate salt]",0.97,81%
"Cn1c(=O)n(C2CCC(=O)NC2=O)c2ccc(CCCN3CCOC4(C3)CN(c3ccc5cn([C@H]6CC[C@H](CNC(=O)c7cc(F)c(O)c(F)c7F)CC6)nc5c3)C4)cc21 (mixture of isomers) [Example 98, N-{[(1r,4r)-4-{6-[8-(3-{1-[(3RS)-2,6-dioxopiperidin-3-yl]-3-methyl-2-oxo-2,3-dihydro-1H-benzimidazol-5-yl}propyl)-5-oxa-2,8-diazaspiro[3.5]nonan-2-yl]-2H-indazol-2-yl}cyclohexyl]methyl}-2,3,5-trifluoro-4-hydroxybenzamide, trifluoroacetate salt]",0.82,78%
"Cl.Cn1c(=O)n(C2CCC(=O)NC2=O)c2cccc(CN3CCN(c4ncc(-c5ccc6cn([C@H]7CC[C@H](CNC(=O)c8cc(F)c(O)c(F)c8F)CC7)nc6c5)cn4)CC3)c21 (mixture of isomers) [Example 25, N-{[(1r,4r)-4-(6-{2-[4-({1-[(3RS)-2,6-dioxopiperidin-3-yl]-3-methyl-2-oxo-2,3-dihydro-1H-benzimidazol-4-yl}methyl)piperazin-1-yl]pyrimidin-5-yl}-2H-indazol-2-yl)cyclohexyl]methyl}-2,3,5-trifluoro-4-hydroxybenzamide, hydrochloride salt]",0.85,84%
"Cn1c(=O)n(C2CCC(=O)NC2=O)c2ccc(CCCN3CCN(c4nccc(-c5nc(C67CCC(CNC(=O)c8cc(F)c(O)c(F)c8F)(CC6)CC7)cs5)n4)CC3)cc21.O=CO (racemic) [Example 4, N-{[4-(2-{2-[4-(3-{1-[(3RS)-2,6-Dioxopiperidin-3-yl]-3-methyl-2-oxo-2,3-dihydro-1H-benzimidazol-5-yl}propyl)piperazin-1-yl]pyrimidin-4-yl}-1,3-thiazol-4-yl)bicyclo[2.2.2]octan-1-yl]methyl}-2,3,5-trifluoro-4-hydroxybenzamide, formate salt]",0.38,84%
